Where two headings read alike, the source gives them in different places.

One test has as its target T1, His6-TEV-PPARγ-(234-505) (Homo sapiens, UniProt P37231).
T1 construct: The His6-TEV-PPARγ-(234-505) protein for assay was expressed and purified; TEV cleavage site (N); made in house
T1 sequence (P37231 234-505): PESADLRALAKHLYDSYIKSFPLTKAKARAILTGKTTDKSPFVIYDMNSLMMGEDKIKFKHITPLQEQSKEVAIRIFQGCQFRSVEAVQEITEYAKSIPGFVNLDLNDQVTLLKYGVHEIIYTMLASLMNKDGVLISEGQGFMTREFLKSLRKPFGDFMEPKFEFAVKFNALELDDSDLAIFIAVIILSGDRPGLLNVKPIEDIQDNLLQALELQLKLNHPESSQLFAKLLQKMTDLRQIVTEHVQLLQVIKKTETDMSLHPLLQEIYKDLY
Nature of the test: TR-FRET Assay to Measure Co-R Peptide Recruitment to PPARγ. It counts as biochemical. Particulars: Co-R peptide (SMRT-ID2) recruitment; top final concentration 20 μM; read-out: TR-FRET i-Ag; AC50. In outline: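 His-tagged PPARγ (or controls) was preincubated with compound for 20 minutes at room temperature, then 5 nM anti-His terbium antibody and 200 nM FITC-labeled SMRT-ID2 corepressor peptide (final) were added for a further hour. TR-FRET signal was normalized to percent response using 500 nM T0070907 and DMSO controls.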

The next test relates to UM-UC-9 engineered cells. Description: Cell proliferation / short-term viability assay, CellTiter-Glo 144 h. The test is classed as cell-based, human. The conditions noted are these: read-out: CTGlo 144 h UMUC9.5, G150. On the procedure: Cell Seeding for Proliferation Assay
UM-UC-9 engineered cells were cultured in Dulbecco's Modified Eagle Medium (DMEM) supplemented with 10% FBS, 25 mM glucose (high glucose), 4.0 mM L-glutamine, 2.0 mM GlutaMAX™, 1.0 mM pyruvate, 1.0% non-essential amino acids (NEAA) in a 95% humidified incubator at 37° C. with 5% CO2. Cell banks of UM-UC-9 engineered assay-ready cells (ARCs) were prepared from a very active growth stage. Vials of ARCs containing approximately 5×10^6 cells per vial were stored in liquid nitrogen vapor phase cryostorage until use.
For making assay plates, ARCs were recovered from cryostorage, strained in a […] cell strainer, verified for cell viability >90% and counted using a cell counter (Cellometer Auto 1000, Nexelom). Each cell line was seeded into 384-well plates (50 μl/well) using DMEM medium at a density previously determined to be in log growth phase 7 days post-seeding (500 cells/well) using a bulk reagent dispenser (Multidrop™ Combi, Thermo Scientific) with a large-bore plastic-tip cassette pre-sanitized with 70% ethanol. One plate of cells was designated as the pretreatment time-zero (T0) control. Freshly seeded plates were allowed to sit lidded for 30 minutes within a biosafety cabinet for cells to settle distributed within the plate wells uniformly and then placed into an automated incubator (STX110, Liconic) at 37° C., 5% CO2, and 95% relative humidity.
Preparation of Test Compound in Assay-Ready Plate
Compounds were stored in a low-temperature sample archive as 10 mM dimethyl sulfoxide (DMSO) solutions at −20° C. under reduced humidity (−45° C. dew point) and protected from light. All samples in the automated archive are stored in 2D barcoded polypropylene tubes, tracked through a laboratory information management system (LIMS), and have been verified for identity and purity by NMR (Chemistry, H3 Biomedicine) and by LCMS (Analytical Chemistry, H3 Biomedicine) at the time of sample registration. Identity by mass matching and purity are again verified at the time of sample request fulfillment by redundant LCMS methods (acidic and basic separation protocols; Analytical Chemistry, H3 Biomedicine). Samples retrieved from low-temperature archive storage were solubilized by heated sonication (Bransonic® Ultrasonic Bath, Branson), transferred (Microlab Starlet, Hamilton) and serially-diluted (Viaflo Assist, Integra) by low-volume liquid handlers, and tracked in LIMS by automation log files to create a ID barcoded master dose-response plate (MDR) to serve as a standard source for all assay-ready plates (ARP) used within an experiment. ARPs prepared by acoustic transfer (ATS-100, EDC) of nL volumes from the MDR source were heat-sealed (PlateLoc, Agilent) and stored at −20° C. prior to use (<7 days from production). Tracking of liquid transfers via acoustic dispenser log files were used to update the LIMS system for all ARP plate maps.
Measurement of Pretreatment Control Cells and Sample Anti-Proliferative Effects on Treated Cells
On day 0 (pretreatment cells) or day 7 (treated cells), a cell proliferation assay was performed using an automated robotic assay platform (ACell, High-Res Biosolutions). Cell ARP's were removed from incubation, their plate lid discarded, and using a bulk reagent dispenser (Multidrop™ Combi, Thermo Scientific with a small-bore metal-tip cassette) 25 μL (1/2 volume) of Cell Titer-Glo® 2.0 Cell Viability Assay reagent (Promega) was added to wells of columns 1-23 (column 24 will be used as plate background or positive control). Cell ARP's were incubated at room temperature in an automation hotel position for a total of 1.0 minute while the next plate was delivered to the bulk reagent dispenser and then lid-free cell ARP's were returned to incubate at 37° C. for 2.5 hours. […]
In general terms: ATP-based viability assays read luminescence as a measure of living cells.

As to `COc1cc(-c2cc(C(=O)N3CCC(C(=O)NCc4cccc(Cl)c4F)CC3)n[nH]2)c(Cl)cn1` [Example 156, N-(3-chloro-2-fluorobenzyl)-1-(5-(5-chloro-2-methoxypyridin-4-yl)-1H-pyrazole-3-carbonyl)piperidine-4-carboxamide], at His6-TEV-PPARγ-(234-505), the AC50 is 32.1 nM. Also, the IC50 in the test on UM-UC-9 engineered cells (Homo sapiens, UM-UC-9, 144 h) is 106 nM.

Take `COc1cc(-c2cc(C(=O)N3CC[C@H](C(=O)NC4CCNC4)CC34CC4)n[nH]2)c(F)cn1` (stereo partly drawn) [Example 471, (7S)-4-(5-(5-fluoro-2-methoxypyridin-4-yl)-1H-pyrazole-3-carbonyl)-N-(pyrrolidin-3-yl)-4-azaspiro[2.5]octane-7-carboxamide]: the AC50 at His6-TEV-PPARγ-(234-505) came out at 62.6 nM. Further, the IC50 in the test on UM-UC-9 engineered cells (Homo sapiens, UM-UC-9, 144 h) was > 10000 nM.

`O=C(N[C@H]1CC[C@@](O)(C(F)(F)F)CC1)[C@@H]1C[C@H]2CC[C@@H](C1)N2C(=O)c1cc(-c2ccnc(CO)c2)[nH]n1` [Example 317, (1R,3s,5S)—N-((1r,4R)-4-hydroxy-4-(trifluoromethyl)cyclohexyl)-8-(5-(2-(hydroxymethyl)pyridin-4-yl)-1H-pyrazole-3-carbonyl)-8-azabicyclo[3.2]octane-3-carboxamide]: the AC50 at His6-TEV-PPARγ-(234-505) was 344 nM. Also, the IC50 in the test with UM-UC-9 engineered cells (Homo sapiens, UM-UC-9, 144 h) was > 10000 nM.

Take `COc1cc(-c2cc(C(=O)N3CC[C@H](C(=O)Nc4cnn5ccc(C(C)O)nc45)CC34CC4)n[nH]2)c(F)cn1` (single isomer, unassigned) [Example 445-A]: the AC50 at His6-TEV-PPARγ-(234-505) is 0.6 nM. The IC50 in the test with UM-UC-9 engineered cells turned out to be 15.4 nM.

For “(S)-4-(5-(2-chloro-5-fluoropyridin-4-yl)-1H-pyrazole-3-carbonyl)-N-((1r,4S)-4-hydroxy-4-(trifluoromethyl)cyclohexyl)-4-azaspiro[2.5]octane-7-carboxamide and (R)-4-(5-(2-chloro-5-fluoropyridin-4-yl)-1H-pyrazole-3-carbonyl)-N-((1r,4R)-4-hydroxy-4-(trifluoromethyl)cyclohexyl)-4-azaspiro[2.5]octane-7-carboxamide [Example 529]”, the AC50 at His6-TEV-PPARγ-(234-505) was found to be 10.6 nM. Besides, the IC50 in the test with UM-UC-9 engineered cells came to 34.2 nM.

Take `COc1cc(-c2cc(C(=O)N3CCC(C(=O)NCC4COC(C)(C)O4)CC3)n[nH]2)c(Cl)cn1` (racemic) [Example 185, 1-(5-(5-chloro-2-methoxypyridin-4-yl)-1H-pyrazole-3-carbonyl)-N-((2,2-dimethyl-1,3-dioxolan-4-yl)methyl)piperidine-4-carboxamide]: at His6-TEV-PPARγ-(234-505), the AC50 is 735 nM. Moreover, in the test on UM-UC-9 engineered cells (Homo sapiens, UM-UC-9, 144 h), the IC50 was determined as 1550 nM.

With `COc1cc(-c2cc(C(=O)N3CC[C@H](C(=O)NCc4ncc(N5CC(C)NC(C)C5)cn4)CC34CC4)n[nH]2)c(F)cn1` (stereo partly drawn) [Example 447, (7S)—N-((5-(3,5-dimethylpiperazin-1-yl)pyrimidin-2-yl)methyl)-4-(5-(5-fluoro-2-methoxypyridin-4-yl)-1H-pyrazole-3-carbonyl)-4-azaspiro[2.5]octane-7-carboxamide], the AC50 at His6-TEV-PPARγ-(234-505) turned out to be 508 nM. Moreover, the IC50 with UM-UC-9 engineered cells (Homo sapiens, UM-UC-9, 144 h) came to 3630 nM.

For `COc1cc(-c2cc(C(=O)N3CCC(C(=O)NCc4ncc5c(n4)CCC5)CC3)n[nH]2)c(Cl)cn1` [Example 241, 1-(5-(5-chloro-2-methoxypyridin-4-yl)-1H-pyrazole-3-carbonyl)-N-((6,7-dihydro-5H-cyclopenta[d]pyrimidin-2-yl)methyl)piperidine-4-carboxamide], the AC50 at His6-TEV-PPARγ-(234-505) was found to be 880 nM. Further, in the test with UM-UC-9 engineered cells (Homo sapiens, UM-UC-9, 144 h), the IC50 was 3480 nM.

For the compound `COc1cc(-c2cc(C(=O)N3CC[C@H](C(=O)NC4CCC(C)(C)N(C)C4)CC34CC4)n[nH]2)c(F)cn1` (single isomer, unassigned) [Example 424-A], the AC50 on His6-TEV-PPARγ-(234-505) was found to be 1030 nM. In addition, the IC50 in the test with UM-UC-9 engineered cells amounted to 2980 nM.

As to `Cc1cc(-c2cc(C(=O)N3CC[C@@H](C(=O)N[C@H]4CC[C@@](O)(C(F)(F)F)CC4)CC34CC4)n[nH]2)c(F)cn1` (single isomer, unassigned) [Example 287-B], the AC50 on His6-TEV-PPARγ-(234-505) was 118 nM. Further, the IC50 in the test with UM-UC-9 engineered cells (Homo sapiens, UM-UC-9, 144 h) turned out to be 184 nM.

Consider `COc1cc(-c2cc(C(=O)N3CC[C@H](C(=O)NCc4ncc(N5CC6CC5CN6)cn4)CC34CC4)n[nH]2)c(F)cn1` (single isomer, unassigned) [Example 467-A], for which the AC50 on His6-TEV-PPARγ-(234-505) worked out at 327 nM. In addition, the IC50 with UM-UC-9 engineered cells is > 10000 nM.

The values are drawn from patent US12606541B2, “PPARg modulators and methods of use” (Eisai R&D Management Co., Ltd., priority 2020, dated 2026).
